Measurements from ChEMBL document CHEMBL1909046, “DrugMatrix in vitro pharmacology data”.

Assays:
[1] = biological target: C-C chemokine receptor type 5 (Homo sapiens, UniProt P51681); assay type: cell membranes, Membrane; conditions: hek293; also: in other assays of this panel Not Active means under 50% inhibition at 10 µM
[2] = DRUGMATRIX: Potassium Channel [KATP] radioligand binding (ligand: [3H] Glyburide); assay type: cell membranes, Membrane; conditions: hit-t15; Not Active = under 50% inhibition at 10 µM
[3] = biological target: T1, Cysteinyl leukotriene receptor 1 (Homo sapiens, UniProt Q9Y271); assay type: cell membranes, CHO-K1, Membrane; conditions: cho-k1; also: in other assays of this panel Not Active means under 50% inhibition at 10 µM
T1 sequence (Q9Y271 whole entry): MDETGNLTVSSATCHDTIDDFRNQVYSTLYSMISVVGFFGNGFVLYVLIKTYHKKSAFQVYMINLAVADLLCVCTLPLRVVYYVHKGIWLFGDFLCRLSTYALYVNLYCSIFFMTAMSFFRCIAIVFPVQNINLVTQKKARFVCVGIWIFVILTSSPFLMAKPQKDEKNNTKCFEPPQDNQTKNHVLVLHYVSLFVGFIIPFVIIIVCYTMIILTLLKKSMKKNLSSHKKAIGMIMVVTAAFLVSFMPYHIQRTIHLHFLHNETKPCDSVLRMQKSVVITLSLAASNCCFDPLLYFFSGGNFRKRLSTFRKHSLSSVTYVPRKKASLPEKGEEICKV

Melanocortin receptor 5 = Melanocortin receptor 5 (Homo sapiens, UniProt P33032); assay type: cell membranes, HEK293, Membrane; conditions: hek293; also: in other assays of this panel Not Active means under 50% inhibition at 10 µM
[4] = DRUGMATRIX: Platelet-Derived Growth Factor (PDGF) radioligand binding (ligand: [125I] PDGF); assay type: cell-based; conditions: nih3t3; Not Active = under 50% inhibition at 10 µM
[5] = biological target: Aldo-keto reductase family 1 member B1 (Rattus norvegicus, UniProt P07943); assay: biochemical; assay type: tissue-based, Lens of camera-type eye;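 also: inhibition of aldose reductase enzyme activity, measured with DL-glyceraldehyde as the substrate; in other assays of this panel Not Active means under 50% inhibition at 10 µM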
[6] = DRUGMATRIX: Glutamate, NMDA, Agonism radioligand binding (ligand: [3H] CGP-39653); assay type: cell membranes, Rattus norvegicus, Wistar, Cerebral cortex, Membrane; conditions: Not Active = under 50% inhibition at 10 µM
Adenosine receptor A1 = biological target: T2, Adenosine receptor A1 (Homo sapiens, UniProt P30542); assay type: cell membranes, CHO, Membrane; conditions: cho
T2 sequence (P30542 whole entry): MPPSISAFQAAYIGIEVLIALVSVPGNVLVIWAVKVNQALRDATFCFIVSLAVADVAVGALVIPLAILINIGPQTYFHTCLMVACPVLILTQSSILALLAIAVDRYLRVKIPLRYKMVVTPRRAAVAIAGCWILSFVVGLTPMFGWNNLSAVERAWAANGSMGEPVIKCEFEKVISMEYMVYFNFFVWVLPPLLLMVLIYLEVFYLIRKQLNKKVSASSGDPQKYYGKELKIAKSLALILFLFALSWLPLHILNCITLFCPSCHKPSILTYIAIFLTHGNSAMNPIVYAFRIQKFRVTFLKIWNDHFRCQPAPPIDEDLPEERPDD

Chain of C-C chemokine receptor type 5 (P51681 whole entry): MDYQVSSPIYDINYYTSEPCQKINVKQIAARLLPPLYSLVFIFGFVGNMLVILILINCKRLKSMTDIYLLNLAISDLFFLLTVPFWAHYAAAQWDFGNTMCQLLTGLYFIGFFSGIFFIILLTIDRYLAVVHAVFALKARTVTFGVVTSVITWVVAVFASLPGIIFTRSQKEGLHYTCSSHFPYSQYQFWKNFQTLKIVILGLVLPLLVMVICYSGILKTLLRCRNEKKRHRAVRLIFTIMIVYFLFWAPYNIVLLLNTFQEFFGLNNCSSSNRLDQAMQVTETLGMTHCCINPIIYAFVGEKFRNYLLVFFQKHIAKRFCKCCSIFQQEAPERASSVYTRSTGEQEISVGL
Chain of Melanocortin receptor 5 (P33032 whole entry): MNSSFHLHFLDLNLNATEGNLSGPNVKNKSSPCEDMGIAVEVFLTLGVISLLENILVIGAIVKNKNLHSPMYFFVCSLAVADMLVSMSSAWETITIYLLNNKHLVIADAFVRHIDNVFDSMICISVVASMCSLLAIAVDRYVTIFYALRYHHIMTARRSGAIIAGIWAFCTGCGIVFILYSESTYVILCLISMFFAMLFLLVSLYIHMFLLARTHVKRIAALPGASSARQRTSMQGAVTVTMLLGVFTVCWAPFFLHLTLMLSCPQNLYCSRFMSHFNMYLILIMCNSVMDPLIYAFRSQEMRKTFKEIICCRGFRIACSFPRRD

LIPOPOLYSACCHARIDE E. COLI O55:B5
Not Active: IC50 [1] | Ki [1] | IC50 [2] | Ki [2] | IC50 [3] | Ki [3] | IC50 (Melanocortin receptor 5) | Ki (Melanocortin receptor 5) | IC50 [4] | Ki [4] | IC50 [5] | Ki [5] | IC50 [6] | Ki [6] | IC50 (Adenosine receptor A1) | Ki (Adenosine receptor A1)
